Earlier results in patent US20200338057A1, “Methods of Treating Prostate Cancer Based on Molecular Subtypes” (Janssen Pharmaceutica NV, priority 2019, published 2020).

Key:
[1] = tested on: AR
[2] = tested on: noncastrate hormone-sensitive and bicalutamide-resistant human prostate cancer xenograft models; conditions: noncastrate hormone-sensitive and bicalutamide-resistant human prostate cancer xenografts

Row | SMILES | AR binding affinity [1] | Tumor response in xenograft models [2]
1 | CC(O)c1cc(C(=O)N[C@@H](C)Cn2ccc(-c3ccc(C#N)c(Cl)c3)n2)[nH]n1 (some centres unmarked) [Darolutamide, darolutamide] | high affinity | 
2 | CNC(=O)c1ccc(N2C(=S)N(c3cnc(C#N)c(C(F)(F)F)c3)C(=O)C23CCC3)cc1F [Apalutamide, 4-[7-(6-cyano-5-trifluoromethylpyridin-3-yl)-8-oxo-6-thioxo-5,7-diazaspiro[3.4]oct-5-yl]-2-fluoro-N-methylbenzamide] |  | partial or complete tumor regression
